From US10328075B2, “Method of treatment and compounds for use therein” (Baker Heart and Diabetes Institute, priority 2015, dated 2019)

Columns and labels:
hFPR2 [1] = target: T1, hFPR2 (Homo sapiens, UniProt P25090); assay: Inhibition of forskolin-stimulated cAMP accumulation in hFPR2-FlpIn-CHO cells; assay type: cell-based; conditions: for ΔLog(τ/KA), inhibition of cAMP accumulation, hFPR2-Flpln-CHO: normalized transduction coefficient, reference agonist Cmpd43; for Log(τ/KA), inhibition of cAMP accumulation, hFPR2-Flpln-CHO: transduction coefficient; for Effect on the cAMP response at hFPR2: over the concentration range tested
T1 construct: expressed in transfected cells
T1 sequence (P25090 1-351): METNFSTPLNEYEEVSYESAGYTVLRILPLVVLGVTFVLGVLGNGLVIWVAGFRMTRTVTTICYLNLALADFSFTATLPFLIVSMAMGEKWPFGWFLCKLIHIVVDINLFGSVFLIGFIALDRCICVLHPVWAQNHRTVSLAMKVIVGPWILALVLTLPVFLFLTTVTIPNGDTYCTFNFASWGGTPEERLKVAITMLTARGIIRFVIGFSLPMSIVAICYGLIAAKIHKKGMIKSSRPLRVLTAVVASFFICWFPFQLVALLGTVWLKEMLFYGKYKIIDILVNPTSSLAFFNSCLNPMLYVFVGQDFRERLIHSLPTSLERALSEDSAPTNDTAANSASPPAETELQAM
Source text: (§1) cDNDA construct and generation of stable cell lines: cDNA in pcDNA3.1^+ encoding the human formyl peptide receptors (FPR) subtypes, hFPR1, hFPR2 and hFPR3 was obtained from Invitrogen. The sequences for 3 hFPR receptors were amplified by PCR and cloned into the Gateway entry vector, pDONR202™, using the BP clonase enzyme mix, according to the manufactures' instructions (Invitrogen Inc, Carlsbad, Calif., USA). All hFPR receptors constructs in pDONR201™ were subsequently transfected into the pEF5/FRT/V5/dest vector using the LR clonase enzyme mix (Invitrogen). Receptor constructs (pEF5/FRT/V5/dest) were used to transfect FIp-In CHO cells as described previously (Valant C et al., PNAS, 2014). Cells were selected using 500 μg/mL hydromycin to generate cell lines stably expressing each receptor construct. Cells were maintained and cultured in high glucose DMEM supplemented with 10% FBS, 16 mM HEPES and 500 μg/mL hydromycin at 37° C. under a humidified atmosphere containing 5% CO2.
(§2) In the various assays described below, cells were plated into 96-well transparent cell culture plates at 4×10^4 cells per well, cultured overnight in serum-free media at 37° C. in 5% CO2.
cAMP Accumulation: CHO-hFPR1, -hFPR2 and -hFPR3 stable transfected cells were plated into 96-well plates and cultured overnight at 37° C. in 5% CO2. Cells were washed with PBS, and cultured overnight. […] Cells were lysed in detection buffer (dH2O, 0.3% Tween 20, 5 mM HEPES, 0.1% BSA). Lysates were transferred to a 384-well plate and mixtures of detection buffer/donor bead-conjugated anti-cAMP antibody and detection buffer: biotinylated cAMP: acceptor bead-conjugated streptavidin were added to the lysates according to the PerkinElmer cAMP Alphascreen protocol. Under low-light conditions, a 1:50 (v:v) dilution of AlphaScreen acceptor beads: stimulation buffer was prepared, 1:150 (v:v) dilution of donor beads and 50 nM biotinylated cAMP in detection buffer was prepared in a 384-well opaque optiplates. Plates were incubated in the dark at room temperature overnight before the fluorescence signal was measured by use of a Fusion-α plate reader (PerkinElmer Life and Analytical Sciences). Data were normalized to the response elicited by 10 μM forskolin at the same time point.
(§3) Data analysis: All data were analysed using GraphPad Prism 6.0 (GraphPad Software, San Deigo, Calif., USA). Where appropriate, concentration-response curves were fitted to derive the maximal agonist effect (Emax), and the ligand potency estimate (pEC50), where Emax is the maximal possible response of the system (not the agonist), basal is the basal level of response in the absence of agonist, and pEC50 is the negative logarithm of the agonist concentration that gives a response halfway between Emax and basal.
(§4) In the present study, FIp-IN CHO cells and Gateway plasmid were obtained from Invitrogen Inc (Carlsbad, Calif., USA). The sequences for all 3 known human FPRs (hFPR1, hFPR2 and hFPR3) were amplified by PCR and cloned into the Gateway entry vector, pDONR202TM, using the BP clonase enzyme mix, according to the manufacturers' instructions. The hFPR pDONR201TM constructs were subsequently transfected into the pEF5/FRT/V5/dest vector using the LR clonase enzyme mix (Invitrogen). Receptor constructs (pEF5/FRT/V5/dest) were used to transfect FIp-IN CHO cells, as described previously (Valant et al. 2014). Cells were selected using 500 μg/mL hydromycin to generate cell lines stably expressing each human receptor construct. Cells were maintained and cultured in high glucose Dulbecco's modified eagle medium (DMEM) supplemented with 10% fetal bovine serum (FBS, from JRH Biosciences, Lenexa, Kans., USA) and 500 μg/mL hydromycin B (Invitrogen Inc) at 37° C. under a humidified atmosphere containing 5% CO2. Cell were plated into 96-well transparent cell culture plates at 4×10^4 cells per well, cultured overnight in serum-free media at 37° C. in 5% CO2.

hFPR2 [2] = target: T1, hFPR2; assay: Akt1/2/3 (Ser473) phosphorylation in hFPR2-FlpIn-CHO cells; assay type: cell-based; conditions: for ΔLog(τ/KA), Akt 1/2/3 (Ser473) phosphorylation, hFPR2-Flpln-CHO: normalized transduction coefficient, reference agonist Cmpd43; for Log(τ/KA), Akt 1/2/3 (Ser473) phosphorylation, hFPR2-Flpln-CHO: transduction coefficient
Source text: as §1, §2
Measurement of Akt1/2/3 phosphorylation and Akt 1: The same lysate was used for measurement of Akt1/2/3 phosphorylation (Ser473) and Akt1 (Thr308). Cells were lysed in SureFire lysis buffer and transferred to 384-well opaque proxiplates. Under low-light conditions, a 1:10:40 (v:v:v) dilution of AlphaScreen acceptor beads:Surefire activation buffer:Surefire reaction buffer was prepared and the plate was incubated in the dark at RT for 2 h. Then, a 1:20 (v:v) dilution of AlphaScreen donor beads/dilution was prepared and incubated in the dark at RT for another 2 h, before the fluorescence signal was measured by used of a Fusion-α plate reader (PerkinElmer Life and Analytical Sciences) with standard AlphaScreen settings. Receptor mediated phosphorylation of Akt1/2/3 (Ser473) and Akt1 (Thr308) were determined using the AlphaScreen™ […] SureFire™ kit, as per as per manufacturer's instructions. Data were normalized to the maximal response elicited by 10% (v:v) FBS at the same time point.
as §3, §4

[3] = Table 4, percentage inhibition of forskolin-stimulated cAMP accumulation, read-out: Emax (%), inhibition to cAMP accumulation, hFPR2-Flpln-CHO
[4] = Table 8, percent inhibition of forskolin-induced cAMP accumulation, read-out: Emax, inhibition of cAMP accumulation, hFPR2-Flpln-CHO
[5] = Table 3, percentage of Akt1/2/3 phosphorylation elicited by 10% FBS, read-out: Emax (%), Akt 1/2/3 (Ser473), hFPR2-Flpln-CHO
[6] = Table 8, percent of response elicited by 10% FBS, read-out: Emax, Akt 1/2/3 (Ser473) phosphorylation, hFPR2-Flpln-CHO

| SMILES | Emax (hFPR2 [1]; [3]) [%] | EC50 (hFPR2 [1]; Table 4, read-out: pEC50, inhibition to cAMP accumulation, hFPR2-Flpln-CHO (converted)) [µM] | ΔLog(τ/KA), inhibition of cAMP accumulation, hFPR2-Flpln-CHO (hFPR2 [1]; Table 8) | Emax (hFPR2 [1]; [4]) [%] | EC50 (hFPR2 [1]; Table 8, read-out: pEC50, inhibition of cAMP accumulation, hFPR2-Flpln-CHO (converted)) [µM] | Log(τ/KA), inhibition of cAMP accumulation, hFPR2-Flpln-CHO (hFPR2 [1]; Table 8) | Effect on the cAMP response at hFPR2 (hFPR2 [1]) | Emax (hFPR2 [2]; [5]) [%] | EC50 (hFPR2 [2]; Table 3, read-out: pEC50, Akt 1/2/3 (Ser473), hFPR2-Flpln-CHO (converted)) [µM] | ΔLog(τ/KA), Akt 1/2/3 (Ser473) phosphorylation, hFPR2-Flpln-CHO (hFPR2 [2]; Table 8) | Emax (hFPR2 [2]; [6]) [%] | EC50 (hFPR2 [2]; Table 8, read-out: pEC50, Akt 1/2/3 (Ser473) phosphorylation, hFPR2-Flpln-CHO (converted)) [µM] | Log(τ/KA), Akt 1/2/3 (Ser473) phosphorylation, hFPR2-Flpln-CHO (hFPR2 [2]; Table 8) |
| --- | --- | --- | --- | --- | --- | --- | --- | --- | --- | --- | --- | --- | --- |
| CC(C)C1C(NC(=O)Nc2ccc(Cl)cc2)C(=O)N(c2ccccc2)N1C (stereo not shown) [BIDI-002] | 66 ± 6 | 0.17 | 0.0 | 66 ± 6 | 0.251 | 6.5 ± 0.1 | caused an inhibition of the cAMP response | 30 ± 6 | 0.145 | 0.0 | 30 ± 6 | 0.158 | 6.9 ± 0.4 |
| CSCC[C@H](NC=O)C(=O)N[C@@H](CC(C)C)C(=O)N[C@@H](Cc1ccccc1)C(=O)O [fMLP, N-formyl-Met-Leu-Phe] | 10 ± 8 |  | −1.6 ± 0.2 | 10 ± 8 |  | 4.9 ± 0.1 | caused an inhibition of the cAMP response | 13 ± 4 |  | −2.0 ± 0.2 | 20 ± 4 |  | 4.9 ± 0.2 |
